Data reported in patent US7855228B2, “Antibiotics targeting MreB” (The Board of Trustees of the Leland Stamford Junior …, priority 2005, dated 2010).
In brackets after ≈: the same amount, converted by molar mass. Where two headings read alike, the source gives them in different places.

Assays:
MreB = target: T1, MreB (Caulobacter vibrioides, UniProt A0A0H3C7V4); test: Chromatin immunoprecipitation with anti-MreB; format: cell-based, Caulobacter crescentus; conditions: in the presence of A22
T1 construct: endogenous in cells; host or cells: Caulobacter crescentus cells (formaldehyde-crosslinked extracts)
Excerpt: MreB Associates with Origin-Proximal Loci. The specific inhibition of origin movement by A22 raises the possibility that the duplicated origin moves to the opposite pole through a specific physical association with MreB, much as eukaryotic centromeres are segregated by association with microtubules. We sought to detect such an association in vivo by chromatin immunoprecipitation (ChIP). Following previously established protocols, Caulobacter extracts were ChIP'ed with polyclonal antisera raised against purified Caulobacter MreB. PCR was then used to amplify specific segments of the Caulobacter chromosome. […] We detected a faint signal with primers to the dnaA promoter located 6 kb to the right of the origin (FIG. 8), possibly reflecting the fact that dnaA is at the edge of the MreB binding region.
Chromatin Immunoprecipitations. Formaldehyde-crosslinked chromatin immunoprecipitation was performed as described previously. The anti-MreB antibody was raised by cloning the mreB coding sequence into the pET28a vector (Novagen). The resulting His6-tagged MreB was overexpressed in BL21(DE3)/pLysS E. coli and purified using Qiagen Ni2+-NTA agarose as described previously. Two milligrams of purified His6-MreB was used to immunize two rabbits (Josman Laboratories, Napa, Calif.). Oligonucleotide primer sequences for the regions PCR amplified are available upon request.

E. coli MG1655 = test: Microscopic observation of cell shape; format: cell-based; conditions: for Effect on E. coli cell morphology (in words): 3×MIC or 300 μg/ml, 16 hrs
Summary of the method: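 E. coli K-12 MG1655 grown in Lennox broth with 0.1% glucose (pH 7.2), exposed to compound, methanol-fixed 5 min and examined by differential interference contrast microscopy. Anucleate cells scored after DAPI staining (5 μg/ml) using combined fluorescence phase-contrast.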

Caulobacter crescentus = test: Caulobacter growth (optical density, doubling time); format: cell-based; conditions: for Doubling in A22 in WT Genetic Background / Doubling Time in A22 / Doubling in A22 when Replaced by WT mreB: cell mass over 6 hr, A660
Procedure: Similar volumes of solvent (methanol) alone had no effect on growth. […] This rapid effect on cell growth could be due to a disruption in cell wall deposition or could reflect a secondary response to some other cellular perturbation.
MreB Is the Direct Target of A22. To identify the cellular target(s) of A22, we carried out a screen for A22-resistant mutants by growing large numbers of Caulobacter on plates containing 10 μg/ml A22. We independently isolated 20 mutants that stably and repeatedly formed colonies on plates containing 10 μg/ml A22 and grew in liquid culture containing 10 μg/ml A22. Since MreB was proposed as a possible target of A22, we PCR-amplified and sequenced the mreB gene in the 20 A22-resistant strains and a control wild-type strain. Each of the 20 A22-resistant strains contained a single missense point mutation in its mreB gene, whereas the wild-type A22-sensitive strain had no mreB point mutations (Table 2). Though isolated independently, the 20 strains had only 7 different point mutations: one specific point mutation was found in 10 of the strains, another specific point mutation was found in 5 of the strains, and 5 additional point mutations were found in 1 strain each. Since all 7 of these mutations affected amino acids that are conserved between Caulobacter MreB and Thermotoga maritima MreB, they could be mapped onto the solved three-dimensional structure of T. maritima MreB. […] All of the resistant strains grow at a similar rate in rich PYE medium (w115 min/doubling), which is slower than wild-type cells without drug (87 min/doubling), but they are largely unaffected by the presence of A22 (w115 min/doubling) (Table 2).
Bacterial Strains and Growth Conditions. Caulobacter crescentus strains CB15N and derivatives were grown in PYE or M2G medium or agar plates supplemented with the appropriate combinations of antibiotics, glucose, xylose, A22, and the A22 diluent, methanol. The FROS strains labeled at both the origin and CC2943, CC3300, CC3656, and CC0091, or singly labeled at CC0786, and CC3192 were generated and characterized in a previous study, where they were referred to as MPO40, MPO53, MPO7, MPO133, MP156, and MP82, respectively. Growth and analysis conditions for the mreB depletion, holB:gfp, and FROS strains have been previously described. The methods for ΦCr30-mediated generalized phage transduction and swarmer cell isolation by Percoll density gradient centrifugation have also been described. Washes were performed by micro centrifugation at 8000 g. Twenty independent A22-resistant Caulobacter mutants were isolated by growing 20 single CB15N colonies overnight and plating 10^9 cells per culture on PYE plates containing 10 μg/ml A22. One A22-resistant colony from each plate was isolated, retested, and characterized. To sequence the mreB gene from these strains, mreB was PCR-amplified and the resulting band was gel-purified (Qiagen) and sequenced. Overlay PCR mutagenesis was used to introduce the […] point mutation (A509G) into the previously described PxyI:gfp:mreB construct.

S. typhimurium NBRC13245 = test: Determination of minimum inhibitory concentration (MIC); format: cell-based, Salmonella typhimurium; conditions: Salmonella enterica, read-out: MIC S. typhimurium
Summary of the method: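 Two-fold serial agar dilution on L agar and also on Mueller Hinton agar (pH 7.3); 10 µl of stationary-phase culture diluted in 0.85% NaCl to 10^6 cells/ml spotted per plate. MIC taken as lowest concentration inhibiting growth.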

[1] = Example 2, methods as in Example 1

T1 sequence (A0A0H3C7V4 whole entry): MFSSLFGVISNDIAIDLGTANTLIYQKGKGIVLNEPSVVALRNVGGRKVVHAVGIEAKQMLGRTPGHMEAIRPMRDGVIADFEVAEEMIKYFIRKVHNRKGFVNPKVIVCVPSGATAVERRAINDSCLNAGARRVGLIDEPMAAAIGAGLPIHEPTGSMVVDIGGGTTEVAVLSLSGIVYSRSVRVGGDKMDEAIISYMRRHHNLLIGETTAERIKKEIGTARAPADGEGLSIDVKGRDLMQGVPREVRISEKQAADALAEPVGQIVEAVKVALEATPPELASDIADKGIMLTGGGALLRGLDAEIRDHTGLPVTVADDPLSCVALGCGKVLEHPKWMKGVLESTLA

Structure (SMILES): N=C(N)SCc1ccc(Cl)c(Cl)c1 [Compound 1, S-(3,4-dichlorobenzyl)isothiourea]
- Origin coimmunoprecipitation with MreB (MreB): significantly reduced, though not abolished
- Effect on E. coli cell morphology (in words) (E. coli MG1655; 30° C.): induced a spherical cell shape
- Effect on E. coli cell morphology (in words) (E. coli MG1655; 30° C., listed as A22): induced spherical cells
- Shape (E. coli MG1655; E. coli MG1655 treated at 3×MIC (*), 30° C., 16 h): Sphere*
- Shape (E. coli MG1655; [1]): Sphere
- Effect on growth of Caulobacter cultures (Caulobacter crescentus; 0.1-100 μg/ml, up to 6 hr): slowed growth in a dose-dependent fashion
- Doubling in A22 in WT Genetic Background (Caulobacter crescentus; mreB allele: A325P): 115′
- Doubling in A22 in WT Genetic Background (Caulobacter crescentus; mreB allele: D16G): 112′
- Doubling in A22 in WT Genetic Background (Caulobacter crescentus; mreB allele: D192G): 116′
- Doubling in A22 in WT Genetic Background (Caulobacter crescentus; mreB allele: L23R): 120′
- Doubling in A22 in WT Genetic Background (Caulobacter crescentus; mreB allele: None (wt)): 156′
- Doubling in A22 in WT Genetic Background (Caulobacter crescentus; mreB allele: P112S): 119′
- Doubling in A22 in WT Genetic Background (Caulobacter crescentus; mreB allele: T167A): 105′
- Doubling in A22 in WT Genetic Background (Caulobacter crescentus; mreB allele: V324A): 115′
- Doubling Time in A22 (Caulobacter crescentus; mreB mutation: A325P): 116′
- Doubling Time in A22 (Caulobacter crescentus; mreB mutation: D16G): 115′
- Doubling Time in A22 (Caulobacter crescentus; mreB mutation: D192G): 118′
- Doubling Time in A22 (Caulobacter crescentus; mreB mutation: L23R): 121′
- Doubling Time in A22 (Caulobacter crescentus; mreB mutation: None (wt)): 148′
- Doubling Time in A22 (Caulobacter crescentus; mreB mutation: P112S): 118′
- Doubling Time in A22 (Caulobacter crescentus; mreB mutation: T167A): 110′
- Doubling Time in A22 (Caulobacter crescentus; mreB mutation: V324A): 113′
- Time after A22 treatment at which a decline in growth rate was observed (Caulobacter crescentus; rich PYE medium): 30 min
- Doubling in A22 when Replaced by WT mreB (Caulobacter crescentus; strain: A325P): 144′
- Doubling in A22 when Replaced by WT mreB (Caulobacter crescentus; strain: D16G): 150′
- Doubling in A22 when Replaced by WT mreB (Caulobacter crescentus; strain: None (wt)): 145′
- Doubling in A22 when Replaced by WT mreB (Caulobacter crescentus; strain: P112S): 146′
- Doubling in A22 when Replaced by WT mreB (Caulobacter crescentus; strain: T167A): 148′
- Doubling in A22 when Replaced by WT mreB (Caulobacter crescentus; strain: V324A): 142′
- MIC (S. typhimurium NBRC13245; [1]): 3.13 µg/mL (≈ 13.3 µM)
- MIC (S. typhimurium NBRC13245; Table 1, NBRC13245): 3.13 µg/mL (≈ 13.3 µM)
